Data reported in PubChem BioAssay (NCI).
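Step 1: Grow cells in 96-well plates. Step 2: Expose to compound for 48 hours at 5 concentrations. Step 3: Interpolate endpoints linearly; if unreached, use highest concentration. Abbreviation: GI50, concentration required for 50% inhibition of growth. TGI: total growth inhibition.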

Legend:
Assay in all cases: growth of human tumour cells (NCI), 48 h
M14 melanoma = system: M14 melanoma
SK-MEL-28 melanoma = system: SK-MEL-28 melanoma
TK-10 renal = system: TK-10 renal
SNB-75 CNS = system: SNB-75 CNS
UACC-62 melanoma = system: UACC-62 melanoma
OVCAR-3 ovarian = system: OVCAR-3 ovarian
NCI/ADR-RES ovarian = system: NCI/ADR-RES ovarian
SK-MEL-5 melanoma = system: SK-MEL-5 melanoma
CAKI-1 renal = system: CAKI-1 renal
NCI-H460 lung = system: NCI-H460 lung
EKVX NSCLC = system: EKVX NSCLC
SN12C renal = system: SN12C renal
HCT-116 colon = system: HCT-116 colon
HCC-2998 colon = system: HCC-2998 colon
MDA-MB-435 = system: MDA-MB-435
SR leukemia = system: SR leukemia
SF-539 CNS = system: SF-539 CNS
BT-549 breast = system: BT-549 breast
NCI-H23 lung = system: NCI-H23 lung
DU-145 prostate = system: DU-145 prostate
SK-MEL-2 melanoma = system: SK-MEL-2 melanoma
OVCAR-8 ovarian = system: OVCAR-8 ovarian
HT29 colon = system: HT29 colon
UACC-257 melanoma = system: UACC-257 melanoma
HOP-62 NSCLC = system: HOP-62 NSCLC
RPMI-8226 leukemia = system: RPMI-8226 leukemia
U251 CNS = system: U251 CNS
UO-31 renal = system: UO-31 renal
IGROV1 ovarian = system: IGROV1 ovarian
RXF 393 renal = system: RXF 393 renal
KM12 colon = system: KM12 colon
HOP-92 NSCLC = system: HOP-92 NSCLC
SF-268 CNS = system: SF-268 CNS
T-47D breast = system: T-47D breast
MOLT-4 leukemia = system: MOLT-4 leukemia
HS 578T breast = system: HS 578T breast
SNB-19 CNS = system: SNB-19 CNS
MDA-MB-231 breast = system: MDA-MB-231 breast
MCF7 breast = system: MCF7 breast
786-0 renal = system: 786-0 renal
A498 renal = system: A498 renal
SW-620 colon = system: SW-620 colon
HL-60(TB) leukemia = system: HL-60(TB) leukemia
SK-OV-3 ovarian = system: SK-OV-3 ovarian
NCI-H522 lung = system: NCI-H522 lung
CCRF-CEM leukemia = system: CCRF-CEM leukemia
PC-3 prostate = system: PC-3 prostate
MALME-3M melanoma = system: MALME-3M melanoma
OVCAR-4 ovarian = system: OVCAR-4 ovarian
OVCAR-5 ovarian = system: OVCAR-5 ovarian
A549 NSCLC = system: A549 NSCLC
SF-295 CNS = system: SF-295 CNS
K-562 leukemia = system: K-562 leukemia
HCT-15 colon = system: HCT-15 colon
NCI-H226 lung = system: NCI-H226 lung
ACHN renal = system: ACHN renal
COLO 205 colon = system: COLO 205 colon
LOX IMVI melanoma = system: LOX IMVI melanoma

`COc1cc(Nc2ncc3c(C)nc(-c4cccc(C(F)(F)F)c4)n3n2)cc(OC)c1OC` showed a GI50 (M14 melanoma) of 4.03 µM, a TGI (M14 melanoma) of 8.07 µM and a GI50 (SK-MEL-28 melanoma) of 4.44 µM. It also gave a TGI (SK-MEL-28 melanoma) of 8.25 µM, a GI50 (TK-10 renal) of 2.98 µM and a TGI (TK-10 renal) of 6.19 µM. It also gave a GI50 (SNB-75 CNS) of 3.09 µM, a TGI (SNB-75 CNS) of 8.42 µM and a GI50 (UACC-62 melanoma) of 3.15 µM. The TGI (UACC-62 melanoma) was 6.34 µM, the GI50 (OVCAR-3 ovarian) was 4.28 µM and the TGI (OVCAR-3 ovarian) was 7.72 µM. For the same molecule, the GI50 (NCI/ADR-RES ovarian) was 4.23 µM, the TGI (NCI/ADR-RES ovarian) was 11 µM and the GI50 (SK-MEL-5 melanoma) was 3.32 µM. The TGI (SK-MEL-5 melanoma) was 6.51 µM, the GI50 (CAKI-1 renal) was 0.747 µM and the TGI (CAKI-1 renal) was 13.6 µM. For the same molecule, the GI50 (NCI-H460 lung) was 4.46 µM, the TGI (NCI-H460 lung) was 13.6 µM and the GI50 (EKVX NSCLC) was 4.19 µM. For the same molecule, the TGI (EKVX NSCLC) was 8 µM, the GI50 (SN12C renal) was 3.54 µM and the TGI (SN12C renal) was 7.14 µM. The GI50 (HCT-116 colon) was 3.49 µM, the TGI (HCT-116 colon) was 6.73 µM and the GI50 (HCC-2998 colon) was 4.01 µM. For the same molecule, the TGI (HCC-2998 colon) was 7.86 µM, the GI50 (MDA-MB-435) was 2.58 µM and the TGI (MDA-MB-435) was 5.78 µM. For the same molecule, the GI50 (SR leukemia) was 6.36 µM, the TGI (SR leukemia) was 17.5 µM and the GI50 (SF-539 CNS) was 3.98 µM. The TGI (SF-539 CNS) was 8.34 µM, the GI50 (BT-549 breast) was 4.05 µM and the TGI (BT-549 breast) was 8.03 µM. For the same molecule, the GI50 (NCI-H23 lung) was 4.07 µM, the TGI (NCI-H23 lung) was 8.61 µM and the GI50 (DU-145 prostate) was 3.13 µM. It also gave a TGI (DU-145 prostate) of 6.26 µM, a GI50 (SK-MEL-2 melanoma) of 3.25 µM and a TGI (SK-MEL-2 melanoma) of 7.28 µM. For the same molecule, the GI50 (OVCAR-8 ovarian) was 4.09 µM, the TGI (OVCAR-8 ovarian) was 8.91 µM and the GI50 (HT29 colon) was 4.15 µM. For the same molecule, the TGI (HT29 colon) was 7.69 µM, the GI50 (UACC-257 melanoma) was 3.88 µM and the TGI (UACC-257 melanoma) was 7.46 µM. It also gave a GI50 (HOP-62 NSCLC) of 3.84 µM, a TGI (HOP-62 NSCLC) of 7.51 µM and a GI50 (RPMI-8226 leukemia) of 6.45 µM. For the same molecule, the TGI (RPMI-8226 leukemia) was 19.7 µM, the GI50 (U251 CNS) was 3.71 µM and the TGI (U251 CNS) was 7.06 µM. For the same molecule, the GI50 (UO-31 renal) was 1.82 µM, the TGI (UO-31 renal) was 6.18 µM and the GI50 (IGROV1 ovarian) was 3.49 µM. For the same molecule, the TGI (IGROV1 ovarian) was 11.2 µM, the GI50 (RXF 393 renal) was 1.81 µM and the TGI (RXF 393 renal) was 5.42 µM. For the same molecule, the GI50 (KM12 colon) was 3.05 µM, the TGI (KM12 colon) was 6.23 µM and the GI50 (HOP-92 NSCLC) was 1.74 µM. For the same molecule, the TGI (HOP-92 NSCLC) was 5.99 µM, the GI50 (SF-268 CNS) was 4.19 µM and the TGI (SF-268 CNS) was 8.1 µM. It also gave a GI50 (T-47D breast) of 2.95 µM, a TGI (T-47D breast) of 6.58 µM and a GI50 (MOLT-4 leukemia) of 6.85 µM. It also gave a TGI (MOLT-4 leukemia) of 15.4 µM, a GI50 (HS 578T breast) of 3.77 µM and a TGI (HS 578T breast) of 13.6 µM. The GI50 (SNB-19 CNS) was 4.64 µM, the TGI (SNB-19 CNS) was 8.51 µM and the GI50 (MDA-MB-231 breast) was 3.33 µM. The TGI (MDA-MB-231 breast) was 6.97 µM, the GI50 (MCF7 breast) was 4.14 µM and the TGI (MCF7 breast) was 7.82 µM. It also gave a GI50 (786-0 renal) of 3.96 µM, a TGI (786-0 renal) of 7.92 µM and a GI50 (A498 renal) of 0.305 µM. For the same molecule, the TGI (A498 renal) was 5.86 µM, the GI50 (SW-620 colon) was 3.72 µM and the TGI (SW-620 colon) was 7.62 µM. The GI50 (HL-60(TB) leukemia) was 6.91 µM, the TGI (HL-60(TB) leukemia) was 16 µM and the GI50 (SK-OV-3 ovarian) was 2.24 µM. The TGI (SK-OV-3 ovarian) was 6.86 µM, the GI50 (NCI-H522 lung) was 4.18 µM and the TGI (NCI-H522 lung) was 8.12 µM. The GI50 (CCRF-CEM leukemia) was 5.87 µM, the TGI (CCRF-CEM leukemia) was 19 µM and the GI50 (PC-3 prostate) was 4.32 µM. It also gave a TGI (PC-3 prostate) of 10.6 µM, a GI50 (MALME-3M melanoma) of 4.39 µM and a TGI (MALME-3M melanoma) of 9.17 µM. For the same molecule, the GI50 (OVCAR-4 ovarian) was 4.48 µM, the TGI (OVCAR-4 ovarian) was 9.81 µM and the GI50 (OVCAR-5 ovarian) was 3.65 µM. The TGI (OVCAR-5 ovarian) was 7.5 µM, the GI50 (A549 NSCLC) was 3.51 µM and the TGI (A549 NSCLC) was 6.98 µM. For the same molecule, the GI50 (SF-295 CNS) was 3.86 µM, the TGI (SF-295 CNS) was 8.15 µM and the GI50 (K-562 leukemia) was 6.62 µM. It also gave a TGI (K-562 leukemia) of 19.6 µM, a GI50 (HCT-15 colon) of 3.78 µM and a TGI (HCT-15 colon) of 8.2 µM. The GI50 (NCI-H226 lung) was 4.14 µM, the TGI (NCI-H226 lung) was 7.72 µM and the GI50 (ACHN renal) was 1.95 µM. For the same molecule, the TGI (ACHN renal) was 5.78 µM, the GI50 (COLO 205 colon) was 4.07 µM and the TGI (COLO 205 colon) was 7.49 µM. For the same molecule, the GI50 (LOX IMVI melanoma) was 3.74 µM and the TGI (LOX IMVI melanoma) was 7.58 µM.
